According to patent US7163940B2, “Pyrazolopyridinyl pyrimidine therapeutic compounds” (SmithKline Beecham Corporation, priority 2000, dated 2007):

System: HSV-1
Experiment: HSV-1 replication in infected Vero 76 cells, viral DNA hybridization capture assay
Assay type: cell-based
Conditions: HSV-1, Vero 76 cells, MOI=0.001, 40–48 hours incubation
Experimental: Vero 76 cells were maintained in MEM with Earle's salts, L-glutamine, 8% FBS (Hyclone, A-1111-L) and 100 units/mL Penicillin-100 μg/mL Streptomycin. For assay conditions, FBS was reduced to 2%. Cells are seeded into 96-well tissue culture plates at a density of 5×10^4 cells/well after being incubated for 45 min at 37° C. in the presence of HSV-1 or HSV-2 (MOI=0.001). Test compounds are added to the wells and the plates are incubated at 37° C. for 40–48 hours. Cell lysates are prepared as follows: media was removed and replaced with 150 μL/well 0.2 N NaOH with 1% Igepal CA 630 or NP-40. Plates were incubated up to 14 days at room temperature in a humidified chamber to prevent evaporation. • (b) Preparation of Detection DNA.
For the detection probe, a gel-purified, digoxigenin-labeled, […] PCR fragment of the HSV UL-15 sequence was utilized. PCR conditions included 0.5 μM primers, 180 μM dTP, 20 μM dUTP-digoxigenin (Boehringer Mannheim 1558706), 200 μM each of dATP, dCTP, and dGTP, 1×PCR Buffer II (Perkin Elmer), 2.5 mM MgCl2, 0.025 units/μL of AmpliTaq Gold polymerase (Perkin Elmer), and 5 ng of gel-purified HSV DNA per 100 μL. Extension conditions were 10 min at 95° C., followed by 30 cycles of 95° C. for 1 min, 55° C. for 30 sec, and 72° C. for 2 min. The amplification was completed with a 10-min incubation at 72° C. Primers were selected to amplify a 728 bp probe spanning a section of the HSV1 UL15 open reading frame (nucleotides 249–977). Single-stranded transcripts were purified with Promega M13 Wizard kits. The final product was mixed 1:1 with a mixture of 6 M GuSCN, 100 mM EDTA and 200 μg/mL herring sperm DNA and stored at 4° C. • (c) Preparation of Capture Plates.
The capture DNA plasmid (HSV UL13 region in pUC) was linearized by cutting with Xba I, denatured for 15 min at 95° C. and diluted immediately into Reacti-Bind DNA Coating Solution (Pierce, 17250, diluted 1:1 with TE buffer, pH 8) at 1 ng/μL 75 μL/well were added to Corning (#3922 or 9690) white 96-well plates and incubated at room temperature for at least 4 hrs before washing twice with 300 μL/well 0.2×SSC/0.05% Tween-20 (SSC/T buffer). The plates were then incubated overnight at room temperature with 150 μL/well 0.2 N NaOH, 1% IGEPAL and 10 μg/mL herring sperm DNA. • (d) Hybridization.
Twenty-seven (27) μL of cell lysate was combined with 45 μL of hybridization solution (final concentration: 3M GuSCN, 50 mM EDTA, 100 μg/ml salmon sperm DNA, 5× Denhardt's solution, 0.25×APE, and 5 ng of the digoxigenin-labeled detection probe). APE is 1.5 M NH4-acetate, 0.15 M ammonium phosphate, and 5 mM EDTA adjusted to pH 6.0. Mineral oil (50 μL) was added to prevent evaporation. The hybridization plates were incubated at 95° C. for 10 minutes to denature the DNA, then incubated at 42° C. overnight. The wells were washed 6× with 300 μL/well SSC/T buffer then incubated with 75 μL/well anti-digoxigenin-HRP-conjugated antibody (Boehringer Mannheim 1207733, 1:5000 in TE) for 30 min at room temperature. The wells were washed 6× with 300 μL/well with PBS/0.05% Tween-20 before 75 μL/well SuperSignal LBA substrate (Pierce) was added. The plates were incubated at room temperature for 30 minutes and chemiluminescence was measured in a Wallac Victor reader. • e) Results.
The following results were obtained for HSV-1.

| IC50 | Compound |
| --- | --- |
| 1.2 µM | CCCCNc1nccc(-c2c(-c3ccc(F)cc3)nn3c(NCCC)cccc23)n1 [Example 55, 3-[2-(Butylamino)-4-pyrimidinyl]-2-(4-fluorophenyl)-N-propylpyrazolo[1,5-α]pyridin-7-amine] |

Same assay, conditions: Human alphaherpesvirus 1, Vero 76, HSV-1, Vero 76 cells, MOI=0.001, 40–48 hours incubation

| IC50 | Compound |
| --- | --- |
| 5 µM | CN(C)Cc1cc(-c2c(-c3ccc(F)cc3)nn3c(Cl)cccc23)nc(NC2CCCC2)n1 [Example 50, 4-[7-Chloro-2-(4-fluorophenyl)pyrazolo[1,5-α]pyridin-3-yl]-N-cyclopentyl-6-[(dimethylamino)methyl]-2-pyrimidinamine] |
| 0.7 µM | CN1CCCC1CCNc1cccc2c(-c3ccncc3)c(-c3ccc(F)cc3)nn12 (stereo not drawn) [Example 57, N-[2-(4-Fluorophenyl)-3-(4-pyridinyl)pyrazolo[1,5-α]pyridin-7-yl]-N-[2-(1-methyl-2-pyrrolidinyl)ethyl]amine] |
| 10.5 µM | CNc1cccc2c(-c3ccncc3)c(-c3ccc(F)cc3)nn12 [Example 58, 2-(4-Fluorophenyl)-N-methyl-3-(4-pyridinyl)pyrazolo[1,5-α]pyridin-7-amine] |
| 4 µM | CCN(CC)c1cccc2c(-c3ccncc3)c(-c3ccc(F)cc3)nn12 [Example 59, N,N-Diethyl-2-(4-fluorophenyl)-3-(4-pyridinyl)pyrazolo[1,5-α]pyridin-7-amine] |
| > 20 µM | Fc1ccc(-c2nn3c(Br)cccc3c2-c2ccncc2)cc1 [Example 61, 7-Bromo-2-(4-fluorophenyl)-3-pyridin-4-ylpyrazolo[1,5-α]pyridine] |
| > 20 µM | CCCCNc1cccc2c(-c3ccnc(OCC(F)(F)F)n3)c(-c3ccc(F)cc3)nn12 [Example 68, N-Butyl-2-(4-fluorophenyl)-3-[2-(2,2,2-trifluoroethoxy)pyrimidin-4-yl]pyrazolo[1,5-α]pyridin-7-amine] |
| 4.2 µM | Fc1ccc(-c2nn3c(N4CCCC4)cccc3c2-c2ccnc(N3CCCC3)n2)cc1 [Example 69, 2-(4-Fluorophenyl)-7-pyrrolidin-1-yl-3-(2-pyrrolidin-1-ylpyrimidin-4-yl)pyrazolo[1,5-α]pyridine] |
| 4.4 µM | Cc1cc(-c2c(-c3ccc(F)cc3)nn3c(N)cccc23)nc(NC2CCCC2)n1 [Example 72, 3-[2-(Cyclopentylamino)-6-methylpyrimidin-4-yl]-2-(4-fluorophenyl)pyrazolo[1,5-α]pyridin-7-amine] |
| > 20 µM | Fc1ccc(-c2nn3c(Cl)cccc3c2-c2ccnc(-c3ccccc3)n2)cc1 [Example 73, 7-Chloro-2-(4-fluorophenyl)-3-(2-phenylpyrimidin-4-yl)pyrazolo[1,5-α]pyridine] |
| > 20 µM | O=C(NC1CCCC1)c1cc(-c2c(-c3ccc(F)cc3)nn3c(Cl)cccc23)nc(NC2CCCC2)n1 [Example 74, 6-[7-Chloro-2-(4-fluorophenyl)pyrazolo[1,5-α]pyridin-3-yl]-N-cyclopentyl-2-(cyclopentylamino)pyrimidine-4-carboxamide] |
| > 20 µM | O=C(NC1CCCC1)c1cc(-c2c(-c3ccc(F)cc3)nn3c(NC4CCCC4)cccc23)nc(NC2CCCC2)n1 [Example 75, N-Cyclopentyl-2-(cyclopentylamino)-6-[7-(cyclopentylamino)-2-(4-fluorophenyl)pyrazolo[1,5-α]pyridin-3-yl]pyrimidine-4-carboxamide] |
| > 20 µM | Fc1ccc(-c2nn3c(Cl)cccc3c2-c2ccnc(C3CC3)n2)cc1 [Example 76, 7-Chloro-3-(2-cyclopropylpyrimidin-4-yl)-2-(4-fluorophenyl)pyrazolo[1,5-α]pyridine] |
| > 20 µM | CC(C)c1nccc(-c2c(-c3ccc(F)cc3)nn3c(Cl)cccc23)n1 [Example 77, 7-Chloro-2-(4-fluorophenyl)-3-(2-isopropylpyrimidin-4-yl)pyrazolo[1,5-α]pyridine] |
| 0.95 µM | CCCCNc1nccc(-c2c(-c3ccc(F)cc3)nn3c(-c4ccco4)cccc23)n1 [Example 78, N-Butyl-4-[2-(4-fluorophenyl)-7-(2-furyl)pyrazolo[1,5-α]pyridin-3-yl]pyrimidin-2-amine] |
| > 20 µM | Fc1ccc(-c2nn3c(Cl)cccc3c2-c2ccnc(NC3CC3)n2)cc1 [Example 79, 4-[7-Chloro-2-(4-fluorophenyl)pyrazolo[1,5-α]pyridin-3-yl]-N-cyclopropylpyrimidin-2-amine] |
| > 20 µM | Cc1cc(-c2c(-c3ccc(F)cc3)nn3c(NC4CCCC4)cccc23)nc(N(C)C)n1 [Example 81, N-Cyclopentyl-3-[2-(dimethylamino)-6-methylpyrimidin-4-yl]-2-(4-fluorophenyl)pyrazolo[1,5-α]pyridin-7-amine] |
| > 20 µM | Fc1ccc(-c2nn3c(NC4CCCC4)cccc3c2-c2cc(-c3ccccc3)nc(NC3CCCC3)n2)cc1 [Example 82, N-Cyclopentyl-3-[2-(cyclopentylamino)-6-phenylpyrimidin-4-yl]-2-(4-fluorophenyl)pyrazolo[1,5-α]pyridin-7-amine] |
| 1.3 µM | CSc1cccc2c(-c3cc(NC4CCCC4)ncn3)c(-c3ccc(F)cc3)nn12 [Example 83, N-Cyclopentyl-6-[2-(4-fluorophenyl)-7-(methylthio)pyrazolo[1,5-α]pyridin-3-yl]pyrimidin-4-amine] |
| 1.3 µM | Fc1ccc(-c2nn3c(NC4CCCC4)cccc3c2-c2cc(NC3CCCC3)ncn2)cc1 [Example 84, N-cyclopentyl-3-[6-(cyclopentylamino)pyrimidin-4-yl]-2-(4-fluorophenyl)pyrazolo[1,5-α]pyridin-7-amine] |

System: not given
Experiment: not given
Conditions: not given

| melting point | Compound |
| --- | --- |
| 68 to 75 °C | CN(C)Cc1cc(-c2c(-c3ccc(F)cc3)nn3c(Cl)cccc23)nc(NC2CCCC2)n1 [Example 50, 4-[7-Chloro-2-(4-fluorophenyl)pyrazolo[1,5-α]pyridin-3-yl]-N-cyclopentyl-6-[(dimethylamino)methyl]-2-pyrimidinamine] |
